Source: ChEMBL document CHEMBL3861944 (Medchemcomm, 2016)

Key:
[1] = test system: ASPC1; assay: Pro-apoptotic activity in human AsPC1 cells assessed as necrotic cells at 1 uM after 24 hrs by annexin V/propidium iodide staining-based flow cytometric method (reference value: 2.1 +/- 0.4%); format: functional
[2] = test system: ASPC1; assay: Pro-apoptotic activity in human AsPC1 cells assessed as necrotic cells at 10 uM after 24 hrs by annexin V/propidium iodide staining-based flow cytometric method (reference value: 2.1 +/- 0.4%); format: functional
[3] = test system: ASPC1; assay: Pro-apoptotic activity in human AsPC1 cells assessed as necrotic cells at 30 uM after 24 hrs by annexin V/propidium iodide staining-based flow cytometric method (reference value: 2.1 +/- 0.4%); format: functional
[4] = test system: ASPC1; assay: Pro-apoptotic activity in human AsPC1 cells assessed as early apoptotic cells at 75 uM after 24 hrs by annexin V/propidium iodide staining-based flow cytometric method (reference value: 0.8 +/- 0.1%); format: functional
[5] = Cell cycle arrest in human THP1 cells assessed as accumulation at G0/G1 phase at 3 uM after 24 hrs by flow cytometric method (reference value: 51 +/- 6%); format: functional, cell-based; settings: THP-1
[6] = Cell cycle arrest in human THP1 cells assessed as accumulation at S phase at 30 uM after 24 hrs by flow cytometric method (reference value: 16 +/- 2%); format: functional, cell-based; settings: THP-1
[7] = Cell cycle arrest in human AsPC1 cells assessed as accumulation at G2/M phase at 75 uM after 24 hrs by flow cytometric method (reference value: 29 +/- 5%); format: functional, cell-based

Q: What does the source list for `NC(=[Se])N/N=C/c1cccc2cccnc12`?
A: Activity [1]: 1.8%; Activity [2]: 1.6%; Activity [3]: 1.9%; Activity [4]: 0.6%; Activity [5]: 43%; Activity [6]: 32%; Activity [7]: 14.4%
